Test results as given in article PMC8877008, “Synthesis and Structure–Activity Relationship Studies of Benzimidazole-4,7-dione-Based P2X3 Receptor Antagonists as Novel Anti-Nociceptive Agents” (Molecules, 2022).

What was measured:
[1] = Metabolic stability in microsomal fraction, rat; type: in vitro ADME; conditions: rat microsomal fraction, read-out: Metabolic Stability (Microsomal Fr.) % remaining after 30 min
CYP 2C19 = CYP 2C19 (Homo sapiens, UniProt P33261); assay: CYP450 inhibition 2C19; type: in vitro ADME; conditions: compound 10 μM
CYP 2C19, sequence (P33261 whole entry): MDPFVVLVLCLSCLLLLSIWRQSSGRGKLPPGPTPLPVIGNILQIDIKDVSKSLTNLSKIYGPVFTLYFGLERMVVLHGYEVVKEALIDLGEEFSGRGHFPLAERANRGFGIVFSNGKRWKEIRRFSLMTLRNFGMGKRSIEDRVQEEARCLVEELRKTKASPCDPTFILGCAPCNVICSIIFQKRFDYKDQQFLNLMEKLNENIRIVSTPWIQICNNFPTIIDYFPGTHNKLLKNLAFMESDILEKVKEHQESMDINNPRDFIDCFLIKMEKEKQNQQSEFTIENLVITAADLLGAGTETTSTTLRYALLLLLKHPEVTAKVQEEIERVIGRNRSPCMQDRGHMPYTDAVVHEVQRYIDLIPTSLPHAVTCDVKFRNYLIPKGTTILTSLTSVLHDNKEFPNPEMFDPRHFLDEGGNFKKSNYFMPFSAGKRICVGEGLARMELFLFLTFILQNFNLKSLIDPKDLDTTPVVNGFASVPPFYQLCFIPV

[2] = In vivo pharmacokinetic study in rats; conditions: male, SD, plasma, 10 mg/kg; oral administration, 10 mpk, rat
Protocol: Experiments were used to determine any changes during in vivo pharmacokinetics, such as absorption, distribution, metabolism, and excretion of compounds, which are correlated with drug efficacy and toxicity. Pharmacokinetic experiments using rats were mainly conducted using 8-week-old SD male rats (Osan, Kyungki-Do, Korea). A tube was inserted into the femoral vein, the intravenous administration group was administered through the tube, and the oral administration group was administered the drug orally using oral gavage (1–2 mL/kg). Blood collection for the drug was performed at fixed times ([…], 0.25, 0.5, 1, 2, 4, 6, 8, and 24 h) from the time when the tube was inserted into the femoral vein. Blood was centrifuged to separate plasma, and plasma and urine samples were pretreated (minimum 0.5 ng/mL and maximum 8000 ng/mL) using an appropriate organic solvent. For sample preparation, the working solution of rat blank plasma was spiked, followed by preparation of plasma samples with solid phase extraction. Next, the concentration of 100 μL eluent was analyzed by LC–MS/MS (Mass spectrometry 4000 Qtrap with HPLC, Agilent 1200, Santa Clara, CA, USA). The noncompartmental pharmacokinetic parameters were calculated from the blood concentration–time data of the drug analyzed using the noncompartmental analysis model of WinNonlin (Pharsight ver 6.4, Princeton, NJ, USA).

remaining at 0.5 h [1]: > 99%
CYP450 inhibition 2C19 (CYP 2C19): 25.6%
AUC(0-inf) [2]: 250 ng·h/mL
Cmax [2]: 40 ng/mL
Tmax [2]: 0.33 h
half-life [2]: 7.58 h
SMILES: O=C1C(NC2CCN(C(=O)c3ccc(F)c(F)c3)CC2)=C(Cl)C(=O)c2[nH]c(C(F)(F)F)nc21 [14h, 6-Chloro-5-((1-(3,4-difluorobenzoyl)piperidin-4-yl)amino)-2-(trifluoromethyl)-1H-benzo[d]imidazole-4,7-dione]
